Usually IC50 stands for the concentration that gives 50% inhibition. A low value points to greater potency in that assay.

From ChEMBL document CHEMBL1145609, “Design and synthesis of tacrine-ferulic acid hybrids as multi-potent anti-Alzheimer drug candidates” (Bioorg Med Chem Lett, 2008) come the findings set out here.

The target in one experiment is Acetylcholinesterase (Electrophorus electricus, UniProt O42275).
Another experiment has as its target Butyrylcholinesterase (Equus caballus, UniProt Q9N1N9).

Sequence of Butyrylcholinesterase (Q9N1N9 whole entry): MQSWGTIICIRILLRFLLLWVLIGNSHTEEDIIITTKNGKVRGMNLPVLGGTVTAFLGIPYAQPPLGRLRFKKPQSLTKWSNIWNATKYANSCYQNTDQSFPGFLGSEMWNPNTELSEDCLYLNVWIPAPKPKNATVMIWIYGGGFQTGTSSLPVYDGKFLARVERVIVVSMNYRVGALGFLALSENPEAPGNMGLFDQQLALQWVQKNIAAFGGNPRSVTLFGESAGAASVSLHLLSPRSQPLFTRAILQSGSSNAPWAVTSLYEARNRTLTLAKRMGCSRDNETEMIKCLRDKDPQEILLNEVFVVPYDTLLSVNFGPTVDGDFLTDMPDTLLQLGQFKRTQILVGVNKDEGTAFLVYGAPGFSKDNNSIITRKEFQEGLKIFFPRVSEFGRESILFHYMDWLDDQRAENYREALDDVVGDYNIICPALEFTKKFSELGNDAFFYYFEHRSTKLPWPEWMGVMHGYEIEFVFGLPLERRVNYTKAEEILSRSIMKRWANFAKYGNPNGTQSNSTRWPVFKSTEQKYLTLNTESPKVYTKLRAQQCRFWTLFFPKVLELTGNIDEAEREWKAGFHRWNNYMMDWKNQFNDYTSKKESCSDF
Sequence of Acetylcholinesterase (O42275 whole entry): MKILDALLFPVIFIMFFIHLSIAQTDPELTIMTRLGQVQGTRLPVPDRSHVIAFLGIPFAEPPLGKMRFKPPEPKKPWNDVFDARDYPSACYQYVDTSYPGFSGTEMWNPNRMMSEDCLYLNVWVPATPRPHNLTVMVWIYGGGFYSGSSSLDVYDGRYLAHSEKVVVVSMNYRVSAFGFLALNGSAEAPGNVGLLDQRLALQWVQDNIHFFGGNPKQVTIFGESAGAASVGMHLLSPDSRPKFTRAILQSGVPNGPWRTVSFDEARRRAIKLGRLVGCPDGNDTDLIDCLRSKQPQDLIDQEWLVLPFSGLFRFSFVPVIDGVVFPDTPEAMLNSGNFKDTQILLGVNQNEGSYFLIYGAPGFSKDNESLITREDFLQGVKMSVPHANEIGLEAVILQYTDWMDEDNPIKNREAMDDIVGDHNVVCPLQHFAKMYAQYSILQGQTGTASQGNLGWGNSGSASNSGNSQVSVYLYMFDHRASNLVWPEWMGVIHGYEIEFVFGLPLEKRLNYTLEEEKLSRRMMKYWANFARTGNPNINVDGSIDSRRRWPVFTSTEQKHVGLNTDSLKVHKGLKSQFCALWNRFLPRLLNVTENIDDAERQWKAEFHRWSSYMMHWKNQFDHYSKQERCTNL
Description for Acetylcholinesterase: Inhibition of electric eel AchE by Ellman's assay
Description for Butyrylcholinesterase: Inhibition of equine BChE by Ellman's assay

`NCCCNc1c2c(nc3ccccc13)CCCC2`: the IC50 on Acetylcholinesterase came out at 69.5 nM; on Butyrylcholinesterase it was 5.5 nM.

On to `NCCCCNc1c2c(nc3ccccc13)CCCC2`, for which the IC50 on Acetylcholinesterase turned out to be 23.6 nM; at Butyrylcholinesterase, 7.1 nM.

Take `NCCNc1c2c(nc3ccccc13)CCCC2`: the IC50 was 54.8 nM against Acetylcholinesterase and 12.3 nM on Butyrylcholinesterase.

Turning to `COc1cc(/C=C/C(=O)NCCNc2c3c(nc4ccccc24)CCCC3)ccc1O`, the IC50 against Acetylcholinesterase is 38.6 nM; at Butyrylcholinesterase, 34.1 nM.

For the molecule `COc1cc(/C=C/C(=O)NCCCCCCCCNc2c3c(nc4ccccc24)CCCC3)ccc1O`, the IC50 was determined as 9.6 nM against Acetylcholinesterase and 12.7 nM on Butyrylcholinesterase.

On to `NCCCCCNc1c2c(nc3ccccc13)CCCC2`, for which the figures for the IC50 on Acetylcholinesterase and against Butyrylcholinesterase were 3.2 nM and 5 nM, respectively.

As for `NCCCCCCCCNc1c2c(nc3ccccc13)CCCC2`, the IC50 at Acetylcholinesterase was 3.5 nM; against Butyrylcholinesterase it was 1.4 nM.

For the molecule `COc1cc(/C=C/C(=O)NCCCNc2c3c(nc4ccccc24)CCCC3)ccc1O`, the IC50 against Acetylcholinesterase amounted to 33 nM; on Butyrylcholinesterase, 27 nM.

With `COc1cc(/C=C/C(=O)NCCCCNc2c3c(nc4ccccc24)CCCC3)ccc1O`, the values for the IC50 at Acetylcholinesterase and against Butyrylcholinesterase were 7.6 nM and 5.9 nM, respectively.

For the molecule `COc1cc(/C=C/C(=O)NCCCCCNc2c3c(nc4ccccc24)CCCC3)ccc1O`, the IC50 against Acetylcholinesterase was found to be 4.4 nM; at Butyrylcholinesterase, 6.7 nM.
